Values joined by “and” are separate entries in the source; they are usually repeats but may differ in a detail not shown here. Identical values can stand only once. “Also recorded” adds a separate entry of the source.

Data set [1] is described as follows: ISO-CC-005 Phase I/II trial: safety / adverse events. Format: in vivo, human. An excerpt:
A maximum of 63 Stage IV CRC patients eligible for 1st, 2nd or 3rd line treatment are planned to be enrolled in this study disposed as follows: three to six patients in each dose cohort, and three additional patients in one dose cohort in each treatment arm according to the following study design (Table 1). ISO-CC-005 is an open clinical phase I/II tolerability and dose definition study designed to evaluate safety and define the [6R]-MTHF dose for continued development. It evaluates four doses of [6R]-MTHF in combination with 5-FU with or without the different combinations of irinotecan or oxaliplatin and bevacizumab in patients with metastatic Colorectal Cancer using 4 different protocols: • MOD+5-FU: [6R]-MTHF in combination with 5-FU only, similar to Nordic FLV protocol • MOD+[…] in combination with 5-FU and Irinotecan, similar to Nordic FLIRI protocol • MOD+FLOX: [6R]-MTHF in combination with 5-FU and Oxaliplatin, similar to Nordic FLOX protocol • MOFOX: [6R]-MTHF in combination with 5-FU and Oxaliplatin, similar to FOLFOX-6 protocol By September 2017 the gastrointestinal (GI) adverse effects (AEs) for in total 37 patients had been analyzed. Of the 37 patients, only 2 (two) patients (5.4%) reported a GI adverse event (defined as nausea, vomiting and/or dehydration) of grade 3 or greater.

In data set [2] the test system is stage IV colorectal cancer. In words: ISO-CC-005 Phase I/II trial: tumor response according to RECIST 1.1. Format: in vivo, human. Conditions: for ORR (objective response rate): after 8 weeks' treatment, with 5-FU. An excerpt:
As used herein, the term ORR shall refer to the Objective Response Rate, i.e. the proportion of patients with reduction in tumor burden of a predefined amount.
Complete Response (CR): • Disappearance of all target lesions. Any pathological lymph nodes (whether target or non-target) must have reduction in short axis to <10 mm.
(Note: the appearance of one or more new lesions is also considered progression).
Stable Disease (SD): • Neither sufficient shrinkage to qualify for PR nor sufficient increase to qualify for PD, taking as reference the smallest sum diameters while on study. (Eisenhauer E A, Therasse P, Bogaerts J, Schwartz L H, Sargent D, Ford R, et al. New response evaluation criteria in solid tumors: revised RECIST guideline (version 1.1). Eur J Cancer. 2009 January; 45(2):228-47)
The safety and efficacy of [6R]-5,10-methylenetetrahydrofolate ([6R]-MTHF) is analyzed in an open-label, multiple-site, Phase I/II Dose Cohort Trial (ISO-CC-005) in combination with a fixed dose of 5-Fluorouracil (5-FU) alone or together with a fixed dose of Bevacizumab, Oxaliplatin or Irinotecan in patients with stage IV colorectal cancer. A maximum of 63 Stage IV CRC patients eligible for 1st, 2nd or 3rd line treatment are planned to be enrolled in this study disposed as follows: three to six patients in each dose cohort, and three additional patients in one dose cohort in each treatment arm according to the following study design (Table 1).
[6R]-5,10-Methylenetetrahydrofolic acid ([6R]-MTHF) is formulated as a lyophylised powder containing 100 mg per vial (calculated as free acid). Dosing: Rapid i.v. bolus injections at a fixed dose of 30, 60, 120 or 240 mg/m^2, will be administered approximately 30 minutes after administration of 5-FU on Day 1 and Day 2 in each treatment cycle in all dose cohorts of the study (i.e. regardless of treatment arm). The regimen will be repeated every second week for up to eight (8) cycles, i.e. up to sixteen (16) weeks.
5-FU (5-fluorouracil) is formulated as injection solution. Dosing: 5-FU will be administered as i.v. bolus injections on Day 1 and Day 2 in each treatment cycle. In Arm #2 and Arm #3 of the study, 5-FU will be administered approximately 60 minutes after start of Oxaliplatin or Irinotecan administration, respectively (see description below). The treatment will be repeated every second week for up to eight (8) cycles, i.e. up to sixteen (16) weeks.
ISO-CC-005 is an open clinical phase I/II tolerability and dose definition study designed to evaluate safety and define the [6R]-MTHF dose for continued development. It evaluates four doses of [6R]-MTHF in combination with 5-FU with or without the different combinations of irinotecan or oxaliplatin and bevacizumab in patients with metastatic Colorectal Cancer using 4 different protocols: • MOD+5-FU: [6R]-MTHF in combination with 5-FU only, similar to Nordic FLV protocol • MOD+FLIRI: [6R]-MTHF in combination with 5-FU and Irinotecan, similar to Nordic FLIRI protocol • MOD+FLOX: [6R]-MTHF in combination with 5-FU and Oxaliplatin, similar to Nordic FLOX protocol • MOFOX: [6R]-MTHF in combination with 5-FU and Oxaliplatin, similar to FOLFOX-6 protocol
In one of the treatment protocols (MOFOX) the total dose of [6R]-MTHF was divided into two i.v. bolus injections dispensed approximately 30 and 60 minutes after the initial administration of 5-FU bolus injection (at 0 minute), respectively.
3 patients in total had at this point been treated according to the MOFOX protocol.
By December 2017 the first-line patients were assessed again after 16 weeks of treatment (16 weeks is considered the standard schedule for cancer treatment according to clinical practice guidelines for ESMO (European Society for Medical Oncology)). Four (4) 1st line patients could not be followed for the additional 8 weeks' treatment due to study protocol formalities, and no further 1st line patients had been analysed at this point.

Where [3] appears, read: of 8 first-line patients, 16 weeks.
[4] abbreviates: of 13 patients analyzed by August 2017, 8 weeks.
[5] abbreviates: of first 12 first-line patients, 8 treatment weeks.

In the case of `Nc1nc2c(c(=O)[nH]1)N1CN(c3ccc(C(=O)N[C@@H](CCC(=O)O)C(=O)O)cc3)C[C@H]1CN2` [[6R]-MTHF, [6R]-5,10-methylenetetrahydrofolate], the “safety profile compared to other patients in the study or historical control” value in data set [1] (12 first-line patients) is recorded as “no signs of an impaired safety profile”. In addition, in data set [1] (37 patients analyzed by September 2017 (2 patients)), the “patients reporting a GI adverse event (nausea, vomiting and/or dehydration) of grade 3 or greater” value was found to be 5.4%. The “toxicity of 5-FU when combined with [6R]-MTHF compared to 5-FU with other folate adjuvants” value in data set [1] (ISO-CC-005 results so far) was “reduced”. In addition, the ORR in data set [2] (8 remaining first-line patients, 16 weeks of treatment) is 63%. The “ORR (objective response rate)” value in data set [2] (12 first-line patients group) stood at 50%; in data set [2] (13 patients (12 first-line + 1 second-line), RECIST 1.1), 54%. In addition, in data set [2] (12 first-line patients, 8 weeks), the “first-line patients with progressive disease (PD)” value is recorded as “none”. Besides, the “progression of solid tumors between 8 and 16 weeks after initializing treatment” value in data set [2] ([6R]-MTHF and 5-FU, treatment period of at least 8 weeks) is reported as “no patient displayed tumor progression; also recorded: No statistically significant progression”. In addition, in data set [2] ([6R]-MTHF combined with 5-FU, colorectal cancer), the “clinical benefit, defined as stable disease or partial response, treated patients” value was > 90%. In addition, the “ORRs achieved with initial 5-FU followed by multiple IV boluses of [6R]-MTHF” value in data set [2] (colorectal cancer patients, boluses interspaced by about 10-60 minutes) was 60-80% and 60-85%. The “patients with partial response (PR)” value in data set [2] (group treated with at least 60 mg/m2 [6R]-MTHF, 5 out of 7 patients, 8 weeks) was found to be 71%. The “patients showing partial response” value is given as 5 patients in data set [2] (setting [3]) and 7 patients in data set [2] (setting [4]). Moreover, the “patients showing stable disease” value in data set [2] (setting [3]) came out at 3 patients; in data set [2] (setting [4]), 6 patients; in data set [2] (setting [5]), 6 patients. The “patients showing partial response (PR)” value in data set [2] (setting [5]) is 6 patients.
